# Experimental data as given in PubChem BioAssay AID328 (DTP/NCI, 2004).
# Values joined by “and” are separate entries in the source; they are usually repeats but may differ in a detail not shown here. Equal values may be shown once. Inconclusive results and toxic doses are left out.
# System: BDF1 mice, P388 leukemia ip, median survival T/C
# Assay: NCI In Vivo Anticancer Drug Screen. Data for tumor model P388 Leukemia (intraperitoneal) in B6D2F1 (BDF1) mice
# Details: endpoint: median survival time, higher = longer survival
# Procedure, shortened: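 Survival ratio, drug arm over vehicle arm, in mice with a transplanted tumour.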
# [1] = dose: 50.0 mg/kg/injection, schedule: Q01DX009 (ip), vehicle: saline with Tween-80
# [2] = dose: 100.0 mg/kg/injection, schedule: Q01DX009 (ip), vehicle: saline with Tween-80
# [3] = dose: 200.0 mg/kg/injection, schedule: Q01DX009 (ip), vehicle: saline with Tween-80
# [4] = dose: 100.0 mg/kg/injection, schedule: Q01DX009 (ip), vehicle: saline
# [5] = dose: 200.0 mg/kg/injection, schedule: Q01DX009 (ip), vehicle: saline
# [6] = dose: 6.25 mg/kg/injection, schedule: Q01DX009 (ip), vehicle: saline with Tween-80
# [7] = dose: 12.5 mg/kg/injection, schedule: Q01DX009 (ip), vehicle: saline with Tween-80
# [8] = dose: 25.0 mg/kg/injection, schedule: Q01DX009 (ip), vehicle: saline with Tween-80
# [9] = dose: 400.0 mg/kg/injection, schedule: Q01DX009 (ip), vehicle: saline with Tween-80
# [10] = dose: 25.0 mg/kg/injection, schedule: Q04DX003 (ip), vehicle: water
# [11] = dose: 50.0 mg/kg/injection, schedule: Q04DX003 (ip), vehicle: water
# [12] = dose: 100.0 mg/kg/injection, schedule: Q04DX003 (ip), vehicle: water
smiles,measurement,setting,value
CCCn1/c(=N\N=O)sc2ccccc21,T/C,"dose: 50.0 mg/kg/injection, schedule: Q04DX003 (ip), vehicle: saline sonified",100 % of control
same,T/C,"dose: 100.0 mg/kg/injection, schedule: Q04DX003 (ip), vehicle: saline sonified",100 % of control
same,T/C,"dose: 200.0 mg/kg/injection, schedule: Q04DX003 (ip), vehicle: saline sonified",95 % of control
O=[N+]([O-])c1ccc(/C=C/c2cc(N(CCO)CCO)c3ccccc3n2)cc1,T/C,[1],94 % of control
same,T/C,[2],99 % of control
same,T/C,[3],100 % of control
CN1C(=O)Nc2ccc(Cl)cc2C1(O)c1ccccc1 (stereo not given),T/C,[2],89 % of control
OCCCN1CNC(=S)NC1,T/C,[4],108 % of control
same,T/C,[5],108 % of control
Cc1cc(NC(=O)Nc2ccc(C3=NCCCN3)cc2)ccc1NC(=O)Nc1ccc(C2=NCCCN2)cc1,T/C,"dose: 29.0 mg/kg/injection, schedule: Q01DX009 (ip), vehicle: saline",166 % of control
same,T/C,"dose: 45.0 mg/kg/injection, schedule: Q01DX009 (ip), vehicle: saline",153 % of control
same,T/C,"dose: 65.0 mg/kg/injection, schedule: Q01DX009 (ip), vehicle: saline",157 % of control
same,T/C,[4],216 % of control
same,T/C,"dose: 130.0 mg/kg/injection, schedule: Q01DX009 (ip), vehicle: saline",243 % of control
same,T/C,[5],227 % of control and 219 % of control
same,T/C,"dose: 300.0 mg/kg/injection, schedule: Q01DX009 (ip), vehicle: saline",169 % of control
same,T/C,"dose: 400.0 mg/kg/injection, schedule: Q01DX009 (ip), vehicle: saline",98 % of control
O=C(O)c1ccc(C(=O)O)c([N+](=O)[O-])c1,T/C,"dose: 50.0 mg/kg/injection, schedule: Q04DX003 (ip), vehicle: saline",100 % of control
same,T/C,"dose: 100.0 mg/kg/injection, schedule: Q04DX003 (ip), vehicle: saline",100 % of control
same,T/C,"dose: 200.0 mg/kg/injection, schedule: Q04DX003 (ip), vehicle: saline",100 % of control
COc1cccc2c(Cl)c(CCl)c(C)nc12,T/C,[6],94 % of control
same,T/C,[7],110 % of control
same,T/C,[8],103 % of control
same,T/C,[1],103 % of control
same,T/C,[2],103 % of control
N#CSCc1ccc(CSC#N)c(Cl)c1,T/C,"dose: 1.56 mg/kg/injection, schedule: Q01DX009 (ip), vehicle: saline with Tween-80",118 % of control
same,T/C,[6],100 % of control
O=C(/C=C(\Cl)C(=O)NO)NO,T/C,"dose: 11.0 mg/kg/injection, schedule: Q01DX009 (ip), vehicle: saline",103 % of control
same,T/C,"dose: 16.0 mg/kg/injection, schedule: Q01DX009 (ip), vehicle: saline",107 % of control
same,T/C,[4],154 % of control
CCC1CN2CCc3cc(O)c(O)cc3C2CC1CC1NCCc2c1[nH]c1ccc(O)cc21 (stereo not given),T/C,"dose: 1.0 mg/kg/injection, schedule: Q01DX009 (ip), vehicle: Klucel (hydroxypropylcellulose) (HPC)",161 % of control
same,T/C,"dose: 2.0 mg/kg/injection, schedule: Q01DX009 (ip), vehicle: Klucel (hydroxypropylcellulose) (HPC)",163 % of control
O=C(O)c1ccc(C(=O)O)c(C(=O)O)c1.[NH-]C1CCCCC1[NH-].[Pt+2],T/C,"dose: 30.0 mg/kg/injection, schedule: Q01DX001 (ip), vehicle: sodium bicarbonate",164 % of control
same,T/C,"dose: 50.0 mg/kg/injection, schedule: Q01DX001 (ip), vehicle: sodium bicarbonate",162 % of control
C=C1C(=O)OC2CC(C)C3CCC(=O)C3(C)C(O)C12 (stereo not given),T/C,"dose: 4.0 mg/kg/injection, schedule: Q01DX009 (ip), vehicle: Klucel (hydroxypropylcellulose) (HPC)",90 % of control
same,T/C,"dose: 8.0 mg/kg/injection, schedule: Q01DX009 (ip), vehicle: Klucel (hydroxypropylcellulose) (HPC)",95 % of control
same,T/C,"dose: 16.0 mg/kg/injection, schedule: Q01DX009 (ip), vehicle: Klucel (hydroxypropylcellulose) (HPC)",104 % of control
same,T/C,"dose: 32.0 mg/kg/injection, schedule: Q01DX009 (ip), vehicle: Klucel (hydroxypropylcellulose) (HPC)",111 % of control
Fc1ccc(C2CN3C(=N2)C=Cc2ccccc23)cc1 (stereo not given),T/C,[1],101 % of control
same,T/C,[2],99 % of control
same,T/C,[3],117 % of control
O=C(Nc1ccc(C2=NCCCN2)cc1)Nc1cccc(C(=O)Nc2ccc(C3=NCCCN3)cc2)c1,T/C,"dose: 16.5 mg/kg/injection, schedule: Q01DX009 (ip), vehicle: saline with Tween-80",200 % of control
same,T/C,[8],272 % of control
O=C(O)C1CCC(=O)N1C(=O)OCc1ccccc1 (stereo not given),T/C,[2],90 % of control
same,T/C,[3],90 % of control
same,T/C,[9],95 % of control
COc1cccc(CN2CCCNCC2)c1,T/C,"dose: 6.25 mg/kg/injection, schedule: Q04DX003 (ip), vehicle: water",92 % of control
same,T/C,"dose: 12.5 mg/kg/injection, schedule: Q04DX003 (ip), vehicle: water",93 % of control
same,T/C,[10],93 % of control
same,T/C,[11],112 % of control
same,T/C,[12],89 % of control
NC(Cc1ccc(Cl)cc1)C(=O)O (stereo not given),T/C,"dose: 200.0 mg/kg/injection, schedule: Q01DX010 (im), vehicle: other",90 % of control
same,T/C,"dose: 400.0 mg/kg/injection, schedule: Q01DX010 (im), vehicle: other",90 % of control
same,T/C,"dose: 600.0 mg/kg/injection, schedule: Q01DX010 (im), vehicle: other",90 % of control
CCOC(=O)c1ccc(NS(=O)(=O)c2ccc(C)cc2)cc1,T/C,[2],106 % of control
same,T/C,[3],106 % of control
same,T/C,[9],88 % of control
CN(CCOc1ccccc1O)CCOc1ccccc1O,T/C,"dose: 100.0 mg/kg/injection, schedule: Q01DX001 (ip), vehicle: Klucel (hydroxypropylcellulose) (HPC)",120 % of control
same,T/C,"dose: 200.0 mg/kg/injection, schedule: Q01DX001 (ip), vehicle: Klucel (hydroxypropylcellulose) (HPC)",110 % of control
same,T/C,"dose: 400.0 mg/kg/injection, schedule: Q01DX001 (ip), vehicle: Klucel (hydroxypropylcellulose) (HPC)",105 % of control
Cc1ccc(NC(=O)N(CCCl)N=O)c(C)c1,T/C,[6],90 % of control
same,T/C,[7],159 % of control
same,T/C,[8],118 % of control
CN1CCN(c2nn3nnnc3c3ccccc23)CC1,T/C,"dose: 20.0 mg/kg/injection, schedule: Q01DX009 (ip), vehicle: saline with Tween-80",89 % of control
same,T/C,"dose: 40.0 mg/kg/injection, schedule: Q01DX009 (ip), vehicle: saline with Tween-80",94 % of control
same,T/C,"dose: 80.0 mg/kg/injection, schedule: Q01DX009 (ip), vehicle: saline with Tween-80",93 % of control
COc1ccc2c(Cc3ccccc3)cncc2c1O,T/C,"dose: 6.25 mg/kg/injection, schedule: Q01DX009 (ip), vehicle: Klucel (hydroxypropylcellulose) (HPC)",99 % of control
same,T/C,"dose: 12.5 mg/kg/injection, schedule: Q01DX009 (ip), vehicle: Klucel (hydroxypropylcellulose) (HPC)",100 % of control
same,T/C,"dose: 25.0 mg/kg/injection, schedule: Q01DX009 (ip), vehicle: Klucel (hydroxypropylcellulose) (HPC)",105 % of control
same,T/C,"dose: 50.0 mg/kg/injection, schedule: Q01DX009 (ip), vehicle: Klucel (hydroxypropylcellulose) (HPC)",108 % of control
same,T/C,"dose: 100.0 mg/kg/injection, schedule: Q01DX009 (ip), vehicle: Klucel (hydroxypropylcellulose) (HPC)",117 % of control
O=C1CN(Cc2ccccc2)CC(=O)N2CCCN12,T/C,"dose: 50.0 mg/kg/injection, schedule: Q01DX005 (ip), vehicle: saline with Tween-80",101 % of control
same,T/C,"dose: 100.0 mg/kg/injection, schedule: Q01DX005 (ip), vehicle: saline with Tween-80",90 % of control
same,T/C,"dose: 200.0 mg/kg/injection, schedule: Q01DX005 (ip), vehicle: saline with Tween-80",92 % of control
CCNC(C)(C)C(SS)c1ccc(Br)cc1 (stereo not given),T/C,"dose: 6.25 mg/kg/injection, schedule: Q01DX009 (ip), vehicle: water",100 % of control
same,T/C,"dose: 12.5 mg/kg/injection, schedule: Q01DX009 (ip), vehicle: water",92 % of control
same,T/C,"dose: 25.0 mg/kg/injection, schedule: Q01DX009 (ip), vehicle: water",96 % of control
same,T/C,[10],102 % of control
same,T/C,"dose: 50.0 mg/kg/injection, schedule: Q01DX009 (ip), vehicle: water",101 % of control
same,T/C,[11],100 % of control
same,T/C,"dose: 100.0 mg/kg/injection, schedule: Q01DX009 (ip), vehicle: water",109 % of control
same,T/C,[12],102 % of control
same,T/C,"dose: 200.0 mg/kg/injection, schedule: Q01DX009 (ip), vehicle: water",101 % of control
same,T/C,"dose: 200.0 mg/kg/injection, schedule: Q04DX003 (ip), vehicle: water",106 % of control
same,T/C,"dose: 400.0 mg/kg/injection, schedule: Q04DX003 (ip), vehicle: water",90 % of control
